Laboratory results published in PMC10545747, “Development of cyclopeptide inhibitors of cGAS targeting protein-DNA interaction and phase separation” (Nature Communications, 2023).
Where “and” joins values, the source holds several entries; their conditions need not be identical. Equal values may be shown once. Read-outs that look alike come from different tables or passages of the source. Square brackets hold non-standard residues; d marks the D form. Peptide text beside a SMILES is read from it. Orn = NCCC[C@H](N)C(=O)O

Biological target: T1, recombinant human cGAS enzyme (hcGAS-ΔN, residues 147–522) (Homo sapiens, UniProt Q8N884)
T1 construct: N-terminally truncated human cGAS (hcGAS-ΔN, residues 147–522); 6xHis-SUMO (N, cleaved yes); made in house; host or cells: Escherichia coli BL21 (DE3)
T1 sequence (Q8N884 147-522, stated change not applied): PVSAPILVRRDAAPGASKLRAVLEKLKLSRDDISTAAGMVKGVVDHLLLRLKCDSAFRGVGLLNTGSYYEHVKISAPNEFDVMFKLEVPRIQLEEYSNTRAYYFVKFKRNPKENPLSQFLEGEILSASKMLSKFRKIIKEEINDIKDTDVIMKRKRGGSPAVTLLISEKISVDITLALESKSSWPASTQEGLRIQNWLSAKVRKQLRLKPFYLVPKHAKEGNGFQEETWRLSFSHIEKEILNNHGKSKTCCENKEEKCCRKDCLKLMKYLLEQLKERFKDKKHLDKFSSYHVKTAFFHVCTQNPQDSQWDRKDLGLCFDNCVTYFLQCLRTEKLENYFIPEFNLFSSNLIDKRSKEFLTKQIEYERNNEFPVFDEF
Assay: RNA-based fluorescent biosensor assay of cGAS activity (2',3'-cGAMP formation), in vitro screening
Type: biochemical
Settings: for Remaining activity (%), Fig. 1a source data / remaining activity at 20 µM: 20 μM, replicate values; for remaining activity at 20 µM: read-out: Remaining activity (%), Fig. 1a source data
Description: To screen direct cGAS inhibitors targeting protein-DNA interface from our developed focused library of macrocyclic peptides, we applied an RNA-based fluorescent biosensor for 2’,3’-cGAMP to detect cGAS activity in vitro (Supplementary Fig. 1a)[49]. The formation of 2’,3’-cGAMP from ATP and GTP was catalyzed by recombinant human cGAS enzyme (hcGAS-ΔN, residues 147–522, Supplementary Fig. 1b) in the presence of ISD (interferon stimulatory DNA, a 45-bp dsDNA), which was readily quantified by the RNA-based fluorescent biosensor and was further confirmed by ion exchange chromatography (Supplementary Fig. 1c). […] Subsequently, a total of 90 macrocyclic peptides were screened at a concentration of 20 μM (Fig. 1a and Supplementary Fig. 1e), and 4 hits (XQ2, XQ8, XQ19, and XQ46) were obtained for further testing at a cut-off of 40% inhibition (Supplementary Table 1). To evaluate the inhibitory effect of the hits against cGAS in cells, we employed real-time quantitative PCR (qPCR) to examine mRNA levels of IFNΒ1 in THP1 cells. The reported cGAS inhibitor RU.521 was used as the positive control, and the non-active peptide XQ28 in the screening assay was used as the negative control. […] The inhibition of cGAS by these hits was further confirmed in the reporter cell line THP1-Lucia ISG (Invivogen) that expresses secreted luciferase induced by an IRF3-inducible ISG54 promoter (Fig. 1c). The discrepancy between the inhibitory effect of the hits in protein and cellular assays may be attributed to their different cellular permeability.
The high-throughput screening (HTS) experiments of cGAS activity are based on the method previously described. To initiate the enzyme reaction, ISD was added to the reaction solution (40 mM Tris-HCl, pH 7.5, 100 mM NaCl, 10 mM MgCl2) containing hcGAS-ΔN, ATP (Sangon Biotech, Cat# A600311) and GTP (Sangon Biotech, Cat# A620332) in a total volume of 20 ul with the final concentration of 0.5 μM, 1.5 μM, 1 mM, 1 mM, respectively, and incubated for 2 h at 37 °C. For HTS experiments, compounds were added to the same reaction conditions as described above with the final concentration of 20 μM. Z’ factors were calculated from three replicates in the 384-well plate.

[1] = peptides screened at 20 μM, Supplementary Table 1 / Fig. S5b, read-out: Inhibition %

CC(C)C[C@@H]1NC(=O)[C@H](CCCN)NC(=O)[C@H](C(C)C)NC(=O)[C@@H]2CCCN2C(=O)[C@@H](Cc2ccccc2)NC(=O)[C@H](CC(C)C)NC(=O)[C@H](CCCN)NC(=O)[C@H](C(C)C)NC(=O)[C@@H]2CCCN2C(=O)[C@@H](Cc2ccccc2)NC1=O [XQ39, Cyclo (LfPV(Orn)LfPV(Orn))] (cyclo(V[Orn]L[dF]PV[Orn]L[dF]P))
Remaining activity (%), Fig. 1a source data: 96.3833% and 97.8523% | remaining activity at 20 µM: 97.2% | inhibition at 20 µM [1]: 3%

CC(C)C[C@@H]1NC(=O)[C@H](CCCNC(=N)N)NC(=O)[C@H]([C@@H](C)O)NC(=O)[C@@H]2CCCN2C(=O)[C@@H](C)NC(=O)[C@H](CC(C)C)NC(=O)[C@H](CCCNC(=N)N)NC(=O)[C@H]([C@@H](C)O)NC(=O)[C@@H]2CCCN2C(=O)[C@@H](C)NC1=O [XQ40, Cyclo (LaPTRLaPTR)] (cyclo(L[dA]PTRL[dA]PTR))
Remaining activity (%), Fig. 1a source data: 115.337% and 116.119% | remaining activity at 20 µM: 117% | inhibition at 20 µM [1]: 0%

CC(C)C[C@@H]1NC(=O)[C@H](CCCNC(=N)N)NC(=O)[C@H]([C@@H](C)O)NC(=O)[C@@H]2CCCN2C(=O)[C@@H](Cc2ccccc2)NC(=O)[C@H](CC(C)C)NC(=O)[C@H](CCCNC(=N)N)NC(=O)[C@H](C(C)C)NC(=O)[C@@H]2CCCN2C(=O)[C@@H](Cc2ccccc2)NC1=O [XQ42, Cyclo (LfPTRLfPVR)] (cyclo(L[dF]PTRL[dF]PVR))
Remaining activity (%), Fig. 1a source data: 87.273% and 87.6684% | remaining activity at 20 µM: 86% | inhibition at 20 µM [1]: 13%

CC(C)C[C@@H]1NC(=O)[C@H](C)NC(=O)[C@H](CCCNC(=N)N)NC(=O)[C@@H]2CCCN2C(=O)[C@@H](Cc2ccccc2)NC(=O)[C@H](CC(C)C)NC(=O)[C@H](CCCNC(=N)N)NC(=O)[C@H](C(C)C)NC(=O)[C@@H]2CCCN2C(=O)[C@@H](Cc2ccccc2)NC1=O [XQ43, Cyclo (LfPRALfPVR)] (cyclo(AL[dF]PVRL[dF]PR))
Remaining activity (%), Fig. 1a source data: 77.1619% and 77.2258% | remaining activity at 20 µM: 76.3% | inhibition at 20 µM [1]: 23%

CC(C)C[C@@H]1NC(=O)[C@H](C)NC(=O)[C@H](C(C)C)NC(=O)[C@@H]2CCCN2C(=O)[C@@H](Cc2ccccc2)NC(=O)[C@H](CCCNC(=N)N)NC(=O)[C@H](CCCNC(=N)N)NC(=O)[C@H](C(C)C)NC(=O)[C@@H]2CCCN2C(=O)[C@@H](Cc2ccccc2)NC1=O [XQ44, Cyclo (RfPVALfPVR)] (cyclo(AL[dF]PVRR[dF]PV))
Remaining activity (%), Fig. 1a source data: 107.77% and 107.519% | remaining activity at 20 µM: 107% | inhibition at 20 µM [1]: 0%

CC(C)C[C@@H]1NC(=O)[C@H](C)NC(=O)[C@H](C(C)C)NC(=O)[C@@H]2CCCN2C(=O)[C@@H](Cc2ccccc2)NC(=O)[C@H](CC(C)C)NC(=O)[C@H](CCCNC(=N)N)NC(=O)[C@H](C(C)C)NC(=O)[C@H](CCCNC(=N)N)NC(=O)[C@@H](Cc2ccccc2)NC1=O [XQ45, Cyclo (LfRVRLfPVA)] (cyclo(AL[dF]RVRL[dF]PV))
Remaining activity (%), Fig. 1a source data: 110.841% and 109.702% | remaining activity at 20 µM: 115% | inhibition at 20 µM [1]: 0%

CC(C)C[C@@H]1NC(=O)[C@H](CCCNC(=N)N)NC(=O)[C@H](CC(C)C)NC(=O)[C@@H]2CCCN2C(=O)[C@@H](Cc2ccccc2)NC(=O)[C@H](C)NC(=O)[C@H](CCCNC(=N)N)NC(=O)[C@H](C(C)C)NC(=O)[C@@H]2CCCN2C(=O)[C@@H](Cc2ccccc2)NC1=O [XQ47, Cyclo (AfPLRLfPVR)] (cyclo(A[dF]PLRL[dF]PVR))
inhibition at 20 µM [1]: 0%

CC(C)C[C@@H]1NC(=O)[C@H](CCCNC(=N)N)NC(=O)[C@H](C(C)C)NC(=O)[C@H](CC(C)C)NC(=O)[C@@H](Cc2ccccc2)NC(=O)[C@H](C)NC(=O)[C@H](CCCNC(=N)N)NC(=O)[C@H](C(C)C)NC(=O)[C@@H]2CCCN2C(=O)[C@@H](Cc2ccccc2)NC1=O [XQ48, Cyclo (AfLVRLfPVR)] (cyclo(A[dF]LVRL[dF]PVR))
inhibition at 20 µM [1]: 0%

CC(C)C[C@@H]1NC(=O)[C@H](CCCNC(=N)N)NC(=O)[C@H](C(C)C)NC(=O)[C@@H]2CCCN2C(=O)[C@@H](CC(C)C)NC(=O)[C@H](C)NC(=O)[C@H](CCCNC(=N)N)NC(=O)[C@H](C(C)C)NC(=O)[C@@H]2CCCN2C(=O)[C@@H](Cc2ccccc2)NC1=O [XQ49, Cyclo (AlPVRLfPVR)] (cyclo(A[dL]PVRL[dF]PVR))
inhibition at 20 µM: 0%

CC(C)C[C@@H]1NC(=O)[C@H](CCCNC(=N)N)NC(=O)[C@H](C(C)C)NC(=O)[C@@H]2CCCN2C(=O)[C@@H](Cc2ccccc2)NC(=O)[C@H](C)NC(=O)[C@H](CC(C)C)NC(=O)[C@H](C(C)C)NC(=O)[C@@H]2CCCN2C(=O)[C@@H](Cc2ccccc2)NC1=O [XQ50, Cyclo (LfPVLAfPVR)] (cyclo(A[dF]PVRL[dF]PVL))
inhibition at 20 µM [1]: 0%

CC(C)C[C@@H]1NC(=O)[C@H](CCCNC(=N)N)NC(=O)[C@H](C(C)C)NC(=O)[C@@H]2CCCN2C(=O)[C@@H](Cc2ccccc2)NC(=O)[C@H](C)NC(=O)[C@H](CCCNC(=N)N)NC(=O)[C@H](CC(C)C)NC(=O)[C@@H]2CCCN2C(=O)[C@@H](Cc2ccccc2)NC1=O [XQ51, Cyclo (LfPLRAfPVR)] (cyclo(A[dF]PVRL[dF]PLR))
inhibition at 20 µM [1]: 0%

CC(C)C[C@@H]1NC(=O)[C@H](CCCNC(=N)N)NC(=O)[C@H](C(C)C)NC(=O)[C@@H]2CCCN2C(=O)[C@@H](Cc2ccccc2)NC(=O)[C@H](C)NC(=O)[C@H](CCCNC(=N)N)NC(=O)[C@H](C(C)C)NC(=O)[C@H](CC(C)C)NC(=O)[C@@H](Cc2ccccc2)NC1=O [XQ52, Cyclo (LfLVRAfPVR)] (cyclo(A[dF]PVRL[dF]LVR))
inhibition at 20 µM [1]: 0%

CC(C)C[C@@H]1NC(=O)[C@H](CCCNC(=N)N)NC(=O)[C@H](C(C)C)NC(=O)[C@@H]2CCCN2C(=O)[C@@H](Cc2ccccc2)NC(=O)[C@H](C)NC(=O)[C@H](CCCNC(=N)N)NC(=O)[C@H](C(C)C)NC(=O)[C@@H]2CCCN2C(=O)[C@@H](CC(C)C)NC1=O [XQ53, Cyclo (LlPVRAfPVR)] (cyclo(A[dF]PVRL[dL]PVR))
inhibition at 20 µM [1]: 0%

CC(C)C[C@@H]1NC(=O)[C@H](CCCNC(=N)N)NC(=O)[C@H](C(C)C)NC(=O)[C@@H]2CCCN2C(=O)[C@@H](Cc2ccccc2)NC(=O)[C@H](CC(C)C)NC(=O)[C@H](CCCNC(=N)N)NC(=O)[C@H](CC(C)C)NC(=O)[C@@H]2CCCN2C(=O)[C@@H](Cc2ccccc2)NC1=O [XQ54, Cyclo (LfPLRLfPVR)] (cyclo(LRL[dF]PVRL[dF]P))
inhibition at 20 µM [1]: 0%

CC(C)C[C@@H]1NC(=O)[C@H](C)NC(=O)[C@H](C(C)C)NC(=O)[C@@H]2CCCN2C(=O)[C@@H](CCCNC(=N)N)NC(=O)[C@H](CC(C)C)NC(=O)[C@H](CCCNC(=N)N)NC(=O)[C@H](C(C)C)NC(=O)[C@@H]2CCCN2C(=O)[C@@H](Cc2ccccc2)NC1=O [XQ55, Cyclo (LrPVALfPVR)] (cyclo(AL[dF]PVRL[dR]PV))
inhibition at 20 µM [1]: 0%

CC(C)C[C@@H]1NC(=O)[C@H](C)NC(=O)[C@H](C(C)C)NC(=O)[C@@H]2CCCN2C(=O)[C@@H](Cc2ccccc2)NC(=O)[C@H](CC(C)C)NC(=O)[C@H](CCCNC(=N)N)NC(=O)[C@H](C(C)C)NC(=O)[C@@H]2CCCN2C(=O)[C@@H](CCCNC(=N)N)NC1=O [XQ56, Cyclo (LrPVRLfPVA)] (cyclo(AL[dR]PVRL[dF]PV))
inhibition at 20 µM [1]: 0%

CC(C)C[C@@H]1NC(=O)[C@H](CCCNC(=N)N)NC(=O)[C@H](C(C)C)NC(=O)[C@H](C)NC(=O)[C@@H](Cc2ccccc2)NC(=O)[C@H](C)NC(=O)[C@H](CC(=O)O)NC(=O)[C@H](C(C)C)NC(=O)[C@@H]2CCCN2C(=O)[C@@H](Cc2ccccc2)NC1=O [XQ57, Cyclo (LfPVDAfAVR)] (cyclo(AVRL[dF]PVDA[dF]))
inhibition at 20 µM [1]: 0%
